In one assay the test system is A549 cell line. The assay is described as follows: In vitro anticancer effect against A549 cell line (MTT assay). The class given is cell-based. Conditions: Homo sapiens. On the procedure: (§1) The A549 cells described in section 1 of Experimental Materials were placed in a 24-well culture plate at 1×10^4 cells/well, followed by cultivation in DMEM supplemented with 10% FBS at 37° C. and 5% CO2. The A549 cells in the wells were respectively treated with the free ganetespib test solutions and the CHC-ganetespib test solutions. Specifically, 200 μL of a respective test solution was added into a corresponding well containing the A549 cells. The A549 cells which were not treated with the free ganetespib test solutions and the CHC-ganetespib test solutions served as a normal control. After the treatment, cultivation was conducted for 48 hours at 37° C. and 5% CO2.
(§2) The respective resulting culture was subjected to washing twice with PBS after removal of the liquid in the well, and was subjected to determination of cell viability by virtue of the 3-(4,5-dimethylthiazol-2-yl)-2,5-diphenyltetrazoli-umbromide (MTT) assay. Specifically, a suitable amount of a MTT solution (having a MTT concentration of 1.9 mg/mL) was added to the respective culture, followed by incubation for 4 hours. The liquid in the well was removed, and dimethylsulfoxide (DMSO) was added into the well to dissolve formazan dye. Absorbance of the mixture in the well at 450 nm (0D450) was measured using a microplate reader (Tecan Sunrise, Switzerland). The cell viability (%) was calculated by substituting the absorbance into the following equation (2): D=(E/F)×100 (2) • D=cell viability (%) • E=OD450 of respective culture • F=OD450 of normal control
(§3) IC50 (half maximal inhibitory concentration) of the free ganetespib and the CHC-ganetespib particle agasint A549 cell line was determined based on the free ganetespib concentrations and the CHC-ganetespib particle concentrations, respectively, as well as the cell viability resulting from such concentrations.
(Tetrazolium dyes change colour on reduction, which living cells bring about.)

A further assay concerns H1299 cell line. The assay is described as follows: In vitro anticancer effect against H1299 cell line (MTT assay). The class given is cell-based. The settings on record: Homo sapiens, NCI-H1299. On the procedure: as §1, §2, §3
The in vitro anticancer effect of the free ganetespib and the CHC-ganetespib particle agasint H1299 cell line was determined generally according to the method described in section B of this example, except that the H1299 cells described in section 1 of Experimental Materials were placed in a 24-well culture plate at 5×10^4 cells/well, followed by cultivation in RPMI medium supplemented with 10% FBS.

In brackets after ≈: the same amount, converted by molar mass.

For orientation: viability means a read-out of living cells in per cent, often relative to untreated cells. Usually IC50 stands for the concentration at which inhibition is half-maximal. Read a low IC50 as higher potency. For `CC(C)c1cc(-c2nnc(O)n2-c2ccc3c(ccn3C)c2)c(O)cc1O` [Free ganetespib, 4-[5-hydroxy-4-(1-methyl-1H-indol-5-yl)-4H-1,2,4-triazol-3-yl]-6-(propan-2-yl)benzene-1,3-diol], the viability at 0.0015625 µg/mL in the assay on A549 cell line (A549, 1.5625 ng/mL, 48 hours) is 98%; in the assay on H1299 cell line (H1299, 1.5625 ng/mL, 48 hours), 93%. Besides, the viability at 0.003125 µg/mL in the assay on A549 cell line (A549, 3.125 ng/mL, 48 hours) came to 70%; in the assay with H1299 cell line (H1299, 3.125 ng/mL, 48 hours), 85%. Also, the viability at 0.00625 µg/mL is 52% with A549 cell line (A549, 6.25 ng/mL, 48 hours) and 55% with H1299 cell line (H1299, 6.25 ng/mL, 48 hours). The molecule also registered a viability at 0.0125 µg/mL in the assay on A549 cell line (A549, 12.5 ng/mL, 48 hours) of 40%. The viability at 0.025 µg/mL with A549 cell line (A549, 25 ng/mL, 48 hours) was 30%. Besides, the half-inhibitory concentration (IC50) with A549 cell line (A549, 48 hours, MTT) was 8.8 ng/mL (≈ 0.0241 µM); with H1299 cell line (H1299, 48 hours, MTT), 10.3 ng/mL (≈ 0.0283 µM). The viability at 0.01 µg/mL in the assay with H1299 cell line (H1299, 10 ng/mL, 48 hours) was 48%. The viability at 0.02 µg/mL with H1299 cell line (H1299, 20 ng/mL, 48 hours) was determined as 23%.

The values are drawn from patent US11013720B2, “Ganetespib-containing particle, pharmaceutical composition comprising the same, and their use in anticancer treatment” (NATIONAL CHIAO TUNG UNIVERSITY, priority 2019, dated 2021).
